Experimental data as given in patent US8840939B2, “Vigna unguiculata seed extract and compositions containing same” (Laboratoires Expanscience, priority 2009, dated 2014).

Tests used:
[1] = tested on: elastin; experiment: Gene expression of elastin by fibroblasts (RT-PCR); assay type: cell-based; conditions: 5 ng/ml TGFβ1, normal human fibroblasts, 24 hours
Experimental: (§1) The effect of Vigna hydrolysate on the modulation of the extracellular matrix of the dermis was evaluated on a dermal fibroblast model wherein the gene expression of elastin and MMP1 was studied.
(§2) Normal human fibroblasts were treated for 24 hours with 0.01% and 0.05% (w/v) Vigna hydrolysate or with 5 ng/ml TGFβ1 (reference). The gene expression of elastin and MMP1 was analyzed by quantitative real-time RT-PCR.
(§3) The results were analyzed statistically by one-way analysis of variance (ANOVA) followed by Dunnett's test:
(§4) The level of gene expression was expressed in relative quantity (RQ) and the effect of the treatment in relation to the control cells in percentage of increase or inhibition.

[2] = tested on: MMP1; experiment: Gene expression of MMP1 by fibroblasts (RT-PCR); assay type: cell-based; conditions: 5 ng/ml TGFβ1, normal human fibroblasts, 24 hours
Experimental: as §1, §2, §3, §4

[3] = tested on: IL8; experiment: Release of IL8 by PMA-stimulated keratinocytes (ELISA); assay type: cell-based, Human; conditions: 10^−7 M dexamethasone, NCTC2544 keratinocytes, 0.1 μg/ml PMA 24 hours
Experimental: (§5) The anti-inflammatory effect of Vigna hydrolysate was evaluated by measuring the cytokines (IL1α, IL8) produced by keratinocytes in response to stimulation by PMA.
(§6) Human keratinocytes (NCTC2544 cell line) were preincubated for 24 hours with 0.05% (w/v) Vigna hydrolysate or the reference molecule (10^−7 M dexamethasone). The cells were then treated with 0.1 μg/ml PMA, always in the presence of Vigna hydrolysate or dexamethasone, for 24 hours. The quantities of IL1α and IL8 released in the culture medium were evaluated by ELISA.
(§7) The results were analyzed statistically by one-way analysis of variance (ANOVA) followed by Tukey's test:
(§8) The percentage of inhibition in relation to the stimulated control (PMA) was calculated.

[4] = tested on: IL1α; experiment: Release of IL1α by PMA-stimulated keratinocytes (ELISA); assay type: cell-based, Human; conditions: 10^−7 M dexamethasone, NCTC2544 keratinocytes, 0.1 μg/ml PMA 24 hours
Experimental: as §5, §6, §7, §8

Compound | ELASTIN gene expression, percentage of increase in relation to the control cells [1] | ELASTIN gene expression, relative quantity (RQ) [1] | MMP1 gene expression, percentage of inhibition in relation to the control cells [2] | MMP1 gene expression, relative quantity (RQ) [2] | IL8 [3] | inhibition at 0.1 µM ([3]; Homo sapiens, NCTC-2544, read-out: IL8, percentage of inhibition in relation to the stimulated control (PMA) (converted)) | IL1α [4] | inhibition at 0.1 µM ([4]; Homo sapiens, NCTC-2544, read-out: IL1α, percentage of inhibition in relation to the stimulated control (PMA) (converted))
TGFβ1: 5 ng/ml TGFβ1 (reference) | +559% | 6.59 | −88% | 0.12 |  |  |  | 
C[C@@H]1C[C@H]2[C@@H]3CCC4=CC(=O)C=C[C@]4(C)[C@@]3(F)[C@@H](O)C[C@]2(C)[C@@]1(O)C(=O)CO [dexamethasone] |  |  |  |  | 6.0 ± 0.2 ng/mL | 81% | 14.0 ± 3.5 pg/mL | 82%
